This note sets out measurements from PMC12822473, “A Novel FGFR3‐Targeting Antibody‐Drug Conjugate Induces Tumor Cell Apoptosis through the cGAS–STING Pathway in Bladder Cancer” (Advanced Science, 2025).

The assay concerns the target T1, MAD2L1 (T24 cells; MAD2L1WT and mutants reconstituted in MAD2L1‐KD T24 cells) (Homo sapiens, UniProt Q13257).
T1 construct: MAD2L1 in human T24 cells: native, or WT / mutants re-expressed by lentivirus in knockdown cells; Western blot read-out
Kind of assay: streptavidin pull-down, Western blot and MS. Type of assay: biochemical. As to conditions: labelled compound; T24 lysate, 4 °C; competed by excess unlabelled A2. For orientation: Immunoblotting shows a protein as a band on a membrane.

T1 sequence (Q13257 2-205, change not shown): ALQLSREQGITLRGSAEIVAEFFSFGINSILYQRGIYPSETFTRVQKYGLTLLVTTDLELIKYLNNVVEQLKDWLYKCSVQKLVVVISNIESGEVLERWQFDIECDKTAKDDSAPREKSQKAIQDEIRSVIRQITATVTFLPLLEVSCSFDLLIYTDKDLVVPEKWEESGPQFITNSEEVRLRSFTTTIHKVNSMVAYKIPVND

Turning to `CCc1c2c(nc3cccc(F)c13)-c1cc3c(c(=O)n1C2)COC(=O)[C@@]3(CC)OC(=O)CCCC[C@@H]1SC[C@@H]2NC(=O)N[C@@H]21` [A2‐biotin], the “streptavidin pull-down, Western blot and MS” value is reported as “pull‐down/Western blot analysis demonstrated that A2‐biotin directly binds to MAD2L1”.
